Results: patent publication US7268160B2, “Remedies” (Takara Bio, Inc., priority 2000, dated 2007)

Key:
NGF = test: Content of NGF in sciatic nerves of streptozotocin-induced diabetic rats; format: in vivo, SD rats; details: 4 weeks
Method: Male SD rats were purchased from Nippon SLC, and used for an experiment at 5 weeks old after preliminary rearing. Streptozotocin (manufactured by Nakalai Tesque) was administered intraperitoneally to the rats at a dose of 100 mg/kg body weight to induce diabetes. The rats were divided into groups according to the blood sugar level after 5 days from the administration of streptozotocin. Next, a solution prepared by dissolving butein [compound (13)] in physiological saline was administered intraperitoneally to the rats at a dose of 100 μg per 1 kg body weight. In the control group, physiological saline alone was administered in the same manner. The rats were administered for consecutive days, and sciatic nerves (about 35 mg) were enucleated after 4 weeks from the beginning of administration. The enucleated sciatic nerves were homogenized, and NGF was extracted. The content of NGF was assayed by an enzyme immunoassay method (NGF Emax Immuno Assay System, manufactured by Promega).
The numerical figures in the table are expressed by an average value±standard error of 6 cases. In addition, the asterisk * means that the group has a significant difference at a significance level of 5% or less as compared to the control group according to Student-t test. […] As described above, it was clarified that the NGF production was enhanced by the administration of butein to a living body.

[1] = test system: NGF production in the L-M cells; test: Enhancing activity for NGF production, Reference Example 1 method (24 hours culture, NGF enzyme immunoassay of culture medium); format: cell-based, murine; details: for Enhancement Ratio (%): negative control = 100%
Method: L-M cells (ATCC CCL-1.2) from murine fibroblasts were suspended in an M199 medium (manufactured by ICN) containing 0.5% bactopeptone (manufactured by Gibco BRL) so as to have a concentration of 1.5×10^5 cells/mi. The suspension was put in a 96-well plate in an amount of 0.1 ml each well, and the cells were aseptically cultured. After culturing the cells for 3 days, the medium was removed therefrom, and exchanged with an M199 medium containing 0.5% bovine serum albumin (manufactured by Sigma). Caffeic acid (manufactured by Sigma, dimethyl suif oxide (DMSO) solution), a substance known to have enhancing activity for NGF production, was added to each well containing the cells, so as to have a final concentration of 0, 50, 100 or 200 μM, and the cells were cultured for 24 hours. One having a caffeic acid concentration of 0 μM was used as a negative control. In addition, the final concentration of DM50 in each well was adjusted to 0.1%. After the termination of the culture, the NGF concentration in the culture medium was determined by an enzyme immunoassay method (NGF Emax Immuno Assay System, manufactured by Promega). The degree of the enhancement for NGF production of caffeic acid at each added amount was expressed in percentage as the enhancement ratio (%) on the basis of the NGF concentration in the cell culture medium at each added amount, when the NGF concentration in the cell culture medium of the negative control was defined as 100%. The experiment was carried out twice, and an average value was taken. It was shown that the enhancing activity for NGF production of caffeic acid could be assayed by this method.
The enhancing activity for NGF production of the compound (13) (manufactured by Funakoshi) was assayed in the same manner as in Reference Example 1. The compound (13) was added so as to have a final concentration of 0, 0.5, 1, 2, 5, 10, 20 or 50 μM.
The enhancing activity for NGF production of a compound (14) (manufactured by Sigma) was assayed in the same manner as in Reference Example 1. The compound (14) was added so as to have a final concentration of 0, 50, 100 or 200 μM.
The enhancing activity for NGF production of a compound (15) (manufactured by Sigma) was assayed in the same manner as in Reference Example 1. The compound (15) was added so as to have a final concentration of 0, 12.5, 25 or 50 μM.
The enhancing activity for NGF production of a compound (16) (manufactured by Wako Pure Chemical Industries) was assayed in the same manner as in Reference Example 1. The compound (16) was added so as to have a final concentration of 0, 25, 50 or 100 μM.

SD rats = test: Toxicity test in rats (Test Example 1); format: in vivo; details: male SD rats
Method: Male SD rats were purchased from Nippon SLC, and used for an experiment from 6 week-old after preliminary rearing. A solution prepared by dissolving butein [compound (13)] in physiological saline was administered intraperitoneally, or a suspension prepared by suspending butein in 0.5% carboxymethylcellulose was given by forced oral administration, to the rats. The concentration of administration was 300 mg (N=3), 10 mg (N=3), 1 mg (N=3) or 0.1 mg (N=3) per 1 kg body weight in the case of intraperitoneal administration, and 1 g (N=2) and 0.1 g (N=3) per 1 kg body weight in the case of forced oral administration. In the control group, each of the solvents alone was administered in the same manner.

CDF1 mice = test: Toxicity on oral administration to mice; format: in vivo; details: oral administration to a mouse once at 1000 mg/kg
Text: Each of the compounds used in Example 16 was orally administered to mice in the same manner as in Test Example 1 described above.

[2] = test system: NGF production in the L-M cells; test: Enhancement for NGF production by flavonols, Example 16 (24 hours culture); format: cell-based, rat; details: for Enhancement of NGF production (in words): L-M cells; for Enhancement Ratio (%): negative control (distilled water) = 100%
Method: L-M cells (ATCC CCL-1.2) from […] fibroblasts were suspended in an M199 medium (manufactured by ICN) containing 0.5% bactopeptone (manufactured by Gibco BRL) so as to have a concentration of 1.5×10^5 cells/ml. The suspension was put in a 96-well plate in an amount of 0.1 ml each well, and the cells were aseptically cultured. After culturing the cells for 3 days, the medium was removed therefrom, and exchanged with an M199 medium containing 0.5% bovine serum albumin (manufactured by Sigma).
As the negative control, that with addition of distilled water was used. After the termination of the culture, the NGF concentration in the culture medium was assayed by an enzyme immunoassay method (NGF Emax Immuno Assay System, manufactured by Promega). The degree of the enhancement for NGF production at each added amount was expressed in percentage as the enhancement ratio (%) on the basis of the NGF concentration in the cell culture medium at each added amount when the NGF concentration in the cell culture medium of the negative control was defined as 100%. The experiment was carried out twice, and an average value was taken.
The enhancing activity for NGF production of myricitrin (manufactured by Funakoshi) was assayed in the same manner as in item (1) of Example 16. Myricitrin was added so as to have a final concentration of 0, 31.3, 62.5, 125 or 250 μM.
The enhancing activity for NGF production of quercitrin (manufactured by Sigma) was assayed in the same manner as in item (1) of Example 16. Quercitrin was added so as to have a final concentration of 0, 31.3, 62.5, 125 or 250 μM.

SMILES | Enhancement of NGF production (in words) [2] | Enhancement Ratio (%) ([2]; added amount 31.3 μM) | Enhancement Ratio (%) ([2]; added amount 62.5 μM) | Enhancement Ratio (%) ([2]; added amount 125 μM) | Enhancement Ratio (%) ([2]; added amount 250 μM) | other results
O=C(/C=C/c1ccc(O)c(O)c1)c1ccc(O)cc1O [Compound (13), Butein] |  |  |  |  |  | Content of NGF (pg/Sciatic Nerves) (NGF; 100 μg per 1 kg body weight intraperitoneally, consecutive days, streptozotocin diabetic rats, average ± standard error, N = 6, * significant at 5% vs control (119.2 ± 11.7)): 187.7 ± 26.4* pg/Sciatic Nerves; Content of NGF in the nerves vs control group (in words) (NGF; 100 μg per 1 kg intraperitoneally, diabetic rats): content of NGF in the nerves was increased; Enhancement of NGF production (in words) ([1]; L-M cells): enhanced NGF production in the L-M cells in a concentration-dependent manner; Enhancement Ratio (%) ([1]; added amount 0.5 μM): 120%; Enhancement Ratio (%) ([1]; added amount 1 μM): 462%; Enhancement Ratio (%) ([1]; added amount 2 μM): 1107%; Enhancement Ratio (%) ([1]; added amount 5 μM): 2100%; Enhancement Ratio (%) ([1]; added amount 10 μM): 3686%; Enhancement Ratio (%) ([1]; added amount 20 μM): 3927%; Enhancement Ratio (%) ([1]; added amount 50 μM): 1743%; Toxicity findings (death, general conditions, body weight, dissection) (SD rats; forced oral administration, 1 g and 0.1 g per 1 kg body weight): no cases of death, changes in the general conditions, suppression of the increase in the body weight or abnormal findings at the dissection were found; Toxicity findings (death, general conditions, body weight, dissection) (SD rats; intraperitoneal administration, 300 mg, 10 mg, 1 mg or 0.1 mg per 1 kg body weight): no cases of death, changes in the general conditions, suppression of the increase in the body weight or abnormal findings at the dissection were found; Cases of death (CDF1 mice): no cases of death
O=c1c(O)c(-c2cc(O)c(O)c(O)c2)oc2cc(O)cc(O)c12 [Myricetin, myricetin] | enhanced NGF production in the L-M cells in a concentration-dependent manner |  |  |  |  | 
C[C@H]1O[C@@H](Oc2c(-c3cc(O)c(O)c(O)c3)oc3cc(O)cc(O)c3c2=O)[C@@H](O)[C@@H](O)[C@@H]1O [Myricitrin, myricitrin] | enhanced NGF production in the L-M cells in a concentration-dependent manner | 105% | 159% | 294% | 304% | 
O=c1c(O)c(-c2ccc(O)c(O)c2)oc2cc(O)cc(O)c12 [Quercetin, quercetin] | enhanced NGF production in the L-M cells in a concentration-dependent manner | 122% | 108% |  | 219% | 
C[C@@H]1O[C@@H](Oc2c(-c3ccc(O)c(O)c3)oc3cc(O)cc(O)c3c2=O)[C@H](O)[C@H](O)[C@H]1O [Quercitrin, quercitrin] | enhanced NGF production in the L-M cells in a concentration-dependent manner | 122% | 140% | 193% | 207% | 
